Experimental data reported in patent publication US11130733B2, “4-OXO-alkylated tetramic acid compound, preparation method and use thereof” (BEIJING JOEKAI BIOTECH. LLC, priority 2017, dated 2021).

Key:
[1] = tested on: CR mice; test: MTD experiment, dose gradient by gavage; type: in vivo; details: for Survival number: 10 mice per dose
Description: Mice are commonly used rodents to evaluate the toxicity of a test sample and are also an important part of early preclinical safety evaluation. In this experiment, the toxicity of compound 50561 was tested by administering a dose gradient thereof to the mice by gavage and observing its toxicity.
This experiment was designed such that for each dose centration, 10 mice were tested, including half males and half females. The males each weighed about 18-23 grams, and the females each weighed about 17-21 grams. They were randomly grouped by a simple randomization procedure. All the animals used in the experiment weighed between ±20% of the average body weight of their respective genders. If there are not enough animals in the study to meet the weight range required thereby, notify the responsible person of the project to take reasonable measures. Animals must be adapted to the laboratory for at least three days. During this period, daily cage observation was conducted once a day, and a detailed clinical observation was necessary before the experiment. Any animal with symptoms or physical abnormalities would be reported to the attending veterinarian and responsible person of the project, and excluded whenever possible. Animals suitable for experimentation will be assigned to respective experimental groups according to the random grouping method described above.
During the experiment, after administration, all animals were observed continuously for 4 hours; from the end of administration till 3 days thereafter, observations were carried out twice each day, one in the morning and the other in the afternoon; and then observation was carried out once a day. Observations included but were not limited to: skin, hair, eyes, ears, nose, mouth, chest, abdomen, external genitals, limbs, and feet. The respiratory and circulatory systems, autonomic effects (such as salivation), and nervous system (such as tremors, convulsions, stress responses, and abnormal behaviors) should be focused on. Complete anatomical examinations would be performed on all animals that had died, were dying, or planned to be euthanized. Animals found dead outside of fixed working hours could be placed in the refrigerator overnight and dissected immediately on the next working day. At the end of the experiment (14th day after administration), all animals requiring autopsy would be euthanized and autopsied.
External abnormalities in animals, such as palpable masses, should be examined in detail. The skin would be cut along the midline of the abdomen, and any subcutaneous mass would be confirmed in conjunction with the findings in the observations of animal symptoms. […] Diseased organs were removed, weighed, recoded, and kept in a fixative fluid.

[2] = tested on: Salmonella typhimurium TA98; test: Mini Ames experiment, strain TA98; type: cell-based
Description: (§1) Histidine auxotrophic strains of Salmonella typhimurium were cultured in a special medium with quite a low content of histidine. The strains were difficult to divide due to lack of nutrition. If a test compound has mutagenicity, a large number of cells will undergo reverse mutation, synthesizing histidine by themselves and developing into colonies visible to the naked eye. In view of the close relationship between mutagenicity and carcinogenesis of chemicals, this method has been widely used in screening carcinogens. Some chemicals need metabolic activation to induce mutagenicity. Mammalian microsomal enzyme S9 can be added into the test system to eliminate the influence of metabolic activation on generation of mutagenicity.
(§2) […] Mini Ames test with compound 50561

[3] = tested on: Salmonella typhimurium TA100; test: Mini Ames experiment, strain TA100; type: cell-based
Description: as §1, §2

[4] = tested on: Transgenic mice containing APP/PS1; test: Water maze test of spatial memory in mice; type: in vivo
Description: Transgenic mice containing APP/PS1 were purchased from the Jackson Laboratory of the USA. The transgenic mice were crossbred with B6/C3 background mice. Their offspring were self-bred, genotyped, and each fed in a separate cage for about 8 months. One week before the test, a prescribed dose of medicament was administered to the mice by gavage each day, and then the spatial memory of the mice was measured by water maze test. A water tank with a diameter of 1.5 meters was filled with water at a constant temperature of 25 degrees, and skim milk was added to render the water surface opaque. A transparent platform was placed in a specific quadrant of the water tank. Distant hints were provided as spatial reference. The mice were put into the water and allowed to swim until they found the platform under the surface of water. The whole process was tracked by software, and the time from launching to finding the platform, called a latent period, was recorded thereby. If a mouse could not find the platform within 60 seconds, it was manually guided to the platform and its latent period was recorded as 60 seconds. Four rounds of the above tests were carried out on each mouse every day, with a one-hour interval between every two rounds of tests for the mice to rest. The latent period of each mouse on a day was the average of the four rounds of tests on the same day.

[5] = TA98, With Metabolic Activation, 1.5 μg per well
[6] = TA98, With Metabolic Activation, 4 μg per well
[7] = TA98, With Metabolic Activation, 10 μg per well
[8] = TA98, With Metabolic Activation, 25 μg per well
[9] = TA98, With Metabolic Activation, 64 μg per well
[10] = TA98, With Metabolic Activation, 160 μg per well
[11] = TA98, With Metabolic Activation, 400 μg per well
[12] = TA98, With Metabolic Activation, 1000 μg per well
[13] = TA98, Without Metabolic Activation, 1.5 μg per well
[14] = TA98, Without Metabolic Activation, 4 μg per well
[15] = TA98, Without Metabolic Activation, 10 μg per well
[16] = TA98, Without Metabolic Activation, 25 μg per well
[17] = TA98, Without Metabolic Activation, 64 μg per well
[18] = TA98, Without Metabolic Activation, 160 μg per well
[19] = TA98, Without Metabolic Activation, 400 μg per well
[20] = TA98, Without Metabolic Activation, 1000 μg per well
[21] = TA100, With Metabolic Activation, 1.5 μg per well
[22] = TA100, With Metabolic Activation, 4 μg per well
[23] = TA100, With Metabolic Activation, 10 μg per well
[24] = TA100, With Metabolic Activation, 25 μg per well
[25] = TA100, With Metabolic Activation, 64 μg per well
[26] = TA100, With Metabolic Activation, 160 μg per well
[27] = TA100, With Metabolic Activation, 400 μg per well
[28] = TA100, With Metabolic Activation, 1000 μg per well
[29] = TA100, Without Metabolic Activation, 1.5 μg per well
[30] = TA100, Without Metabolic Activation, 4 μg per well
[31] = TA100, Without Metabolic Activation, 10 μg per well
[32] = TA100, Without Metabolic Activation, 25 μg per well
[33] = TA100, Without Metabolic Activation, 64 μg per well
[34] = TA100, Without Metabolic Activation, 160 μg per well
[35] = TA100, Without Metabolic Activation, 400 μg per well
[36] = TA100, Without Metabolic Activation, 1000 μg per well

O=C1C=C(OCc2ccc(F)cc2)[C@H](Cc2ccccc2)N1 [Compound 50561]
Remarks: condition of the body ([1]; 250 mg/kg): in good condition. | Survival number ([1]; 250 mg/kg by gavage): 10 | Remarks: Body weight decreased by ([1]; 250 mg/kg, quickly recovered): about 2 g, which was quickly | Remarks: Body weight decreased by ([1]; 500 mg/kg): about 2 g; individual activity | Remarks: condition of the body; organs of the dead individuals ([1]; 500 mg/kg): in good condition. There | Survival number ([1]; 500 mg/kg by gavage): 8 | Remarks: organs in dead individuals ([1]; 750 mg/kg): No abnormality of organs | Survival number ([1]; 750 mg/kg by gavage): 0 | Remarks: organs in dead individuals ([1]; 1000 mg/kg): No abnormality of organs | Survival number ([1]; 1000 mg/kg by gavage): 0 | maximum tolerance (MTD) ([1]; CR mice, by gavage): < 500 mg/kg | Mean Revertants Per Well [2, 5]: 8.67 | Ratio Treated/Solvent [2, 5]: 1.04 | Mean Revertants Per Well [2, 6]: 13.33 | Ratio Treated/Solvent [2, 6]: 1.60 | Mean Revertants Per Well [2, 7]: 9.33 | Ratio Treated/Solvent [2, 7]: 1.12 | Mean Revertants Per Well [2, 8]: 12.67 | Ratio Treated/Solvent [2, 8]: 1.52 | Mean Revertants Per Well [2, 9]: 12.33 | Ratio Treated/Solvent [2, 9]: 1.48 | Mean Revertants Per Well [2, 10]: 7.00 | Ratio Treated/Solvent [2, 10]: 0.84 | Mean Revertants Per Well [2, 11]: 0.00 | Ratio Treated/Solvent [2, 11]: 0.00 | Mean Revertants Per Well [2, 12]: 0.00 | Ratio Treated/Solvent [2, 12]: 0.00 | Mean Revertants Per Well [2, 13]: 9.00 | Ratio Treated/Solvent [2, 13]: 1.32 | Mean Revertants Per Well [2, 14]: 8.00 | Ratio Treated/Solvent [2, 14]: 1.17 | Mean Revertants Per Well [2, 15]: 8.00 | Ratio Treated/Solvent [2, 15]: 1.17 | Mean Revertants Per Well [2, 16]: 8.33 | Ratio Treated/Solvent [2, 16]: 1.22 | Mean Revertants Per Well [2, 17]: 7.33 | Ratio Treated/Solvent [2, 17]: 1.07 | Mean Revertants Per Well [2, 18]: 7.33 | Ratio Treated/Solvent [2, 18]: 1.07 | Mean Revertants Per Well [2, 19]: 0.00 | Ratio Treated/Solvent [2, 19]: 0.00 | Mean Revertants Per Well [2, 20]: 0.00 | Ratio Treated/Solvent [2, 20]: 0.00| | mutagenicity ([2]; TA98, presence or absence of S9): no obvious mutagenicity | Mean Revertants Per Well [3, 21]: 25.33 | Ratio Treated/Solvent [3, 21]: 0.78 | Mean Revertants Per Well [3, 22]: 30.33 | Ratio Treated/Solvent [3, 22]: 0.93 | Mean Revertants Per Well [3, 23]: 32.33 | Ratio Treated/Solvent [3, 23]: 0.99 | Mean Revertants Per Well [3, 24]: 28.67 | Ratio Treated/Solvent [3, 24]: 0.88 | Mean Revertants Per Well [3, 25]: 31.00 | Ratio Treated/Solvent [3, 25]: 0.95 | Mean Revertants Per Well [3, 26]: 28.33 | Ratio Treated/Solvent [3, 26]: 0.87 | Mean Revertants Per Well [3, 27]: 0.00 | Ratio Treated/Solvent [3, 27]: 0.00 | Mean Revertants Per Well [3, 28]: 0.00 | Ratio Treated/Solvent [3, 28]: 0.00 | Mean Revertants Per Well [3, 29]: 25.67 | Ratio Treated/Solvent [3, 29]: 1.04 | Mean Revertants Per Well [3, 30]: 25.33 | Ratio Treated/Solvent [3, 30]: 1.03 | Mean Revertants Per Well [3, 31]: 28.67 | Ratio Treated/Solvent [3, 31]: 1.16 | Mean Revertants Per Well [3, 32]: 19.00 | Ratio Treated/Solvent [3, 32]: 0.77 | Mean Revertants Per Well [3, 33]: 23.33 | Ratio Treated/Solvent [3, 33]: 0.95 | Mean Revertants Per Well [3, 34]: 17.33 | Ratio Treated/Solvent [3, 34]: 0.70 | Mean Revertants Per Well [3, 35]: 0.00 | Ratio Treated/Solvent [3, 35]: 0.00 | Mean Revertants Per Well [3, 36]: 0.00 | Ratio Treated/Solvent [3, 36]: 0.00 | mutagenicity ([3]; TA100, presence or absence of S9): no obvious mutagenicity | ability to rescue the spatial memory of mice ([4]; 0.1 mg/kg by gavage, FIG. 5): no ability to rescue the spatial memory of mice | ability to rescue the spatial memory of mice ([4]; 1 mg/kg by gavage, FIG. 5): no ability to rescue the spatial memory of mice | ability to rescue the spatial memory of mice ([4]; 10 mg/kg by gavage, FIG. 4): good ability to rescue the spatial memory of mice
